Tests used:
[1] = target: T1, aggregated tau in 3T6 cells expressing htau40 (IPTG-inducible) and truncated tau (Homo sapiens, UniProt P10636); experiment: Tissue culture cell assay: uptake and labelling of aggregated tau; assay type: cell-based, mouse; settings: for binding to aggregated tau within cells, fluorescence microscopy: induced cells
T1 construct: express both full-length human tau protein (htau40); truncated tau (295-390, dGA); expressed in transfected cells; host or cells: murine 3T6 fibroblasts; htau40 in pOPRSVI (IPTG-inducible), dGA in pcDNA3.1 (constitutive)
Experimental: The aggregated tau was prepared in cell lines as described in WO02/055720. In essence, fibroblast cells (3T6) express full-length tau (“T40”) under control of an inducible promotor, and low constitutive levels of the PHF-core tau fragment (12 kD fragment). Then T40 expression is induced, it undergoes aggregation-dependent truncation within the cell, N-terminally at ˜αα295 and C-terminally at ˜αα390, thereby producing higher levels of the 12 kD PHF-core domain fragment.
The tissue culture assay uses 3T6 mouse cells engineered to express both full-length human tau protein (htau40) under the control of an inducible promoter (pOPRSVI), and to express low levels of truncated tau (295-390, dGA) under the control of a constitutive promoter (pcDNA3.1). Expression of large quantities of htau40 is induced by the addition of isopropyl β-D-1-thiogalactopyranoside (IPTG; 10-50 μM), which in turn leads to the production of additional truncated tau by a process in which aggregation and processing of the full-length tau occurs in the presence of dGA tau which acts as template. The aggregation of tau in this assay is depicted in FIG. 1.
Murine 3T6 fibroblast cells were grown to ˜80% confluency in a 10-cm dish, before splitting into 2×24 well plates, and allowed to grow for a further 24 hrs when IPTG was added. After overnight incubation, the medium was removed and the cells were washed with PBS.
A similar experiment was performed with cells seeded on to cover slips in a 24-well plate. After 24 hrs, the cells were incubated with ligand for 20 hrs in the presence or absence of IPTG (100 μM) i.e. induced or uninduced.

[2] = target: T2, aggregated tau in brain sections of line 66 mice (full-length human tau, P301S/G335D) (Homo sapiens, UniProt P10636, G652D/P618S); experiment: Ligand staining of paraffin-embedded brain sections; design: species or system mouse
T2 construct: transgenic mice expressing full-length human tau; from tissue; host or cells: fixed brain sections of transgenic line 66 mice (paraffin-embedded or frozen)
From the text: The binding of ligands to aggregated tau in tissue sections or cells containing such aggregates can also be used to test whether such compounds can (i) enter cells, and (ii) bind to aggregated tau. In addition, it is a suitable means to test fluorescent ligands that cannot be tested in the fluorescent competition binding assay.
Brain tissue sections were used from transgenic mice expressing full-length human tau, that contained a double mutation P301S/G335D (line 66 mouse). Aggregated tau pathology accumulates in neurons in these animals. Fixed tissue was used either after embedding in paraffin or after freezing in the presence of cryoprotectant.
Sections from the brains of mice expressing full-length tau, that contain a double mutation P301S/G335D, associated with frontotemporal […] were cut 5 μm thick. Sections were dewaxed and rehydrated into water. Inherent fluorescence was quenched with sodium permanganate followed by sodium borohydride. Primulin or SK2033-30 was added in 50% ethanol. In a second experiment, SK2033-30 was added in 50% ethanol containing 10% DMSO. Sections were compared with those stained by standard immunohistochemistry using mAb 7/51, an antibody recognising truncated tau repeat domain (Novak et al. (1993); Wischik et al. (1996)).

[3] = Biodistribution assay of 18F-labelled ligand; assay type: in vivo, mouse; settings: mice
Experimental: Biodistribution and excretion studies for ligands were performed in male NMRI mice (body weight app. 30 g; 3 animals per time point). The animals were kept under normal laboratory conditions at a temperature of 22±2° C. and a dark/light rhythm of 12 hours. Food and water were provided ad libitium. During an acclimatisation period of at least 3 days before the beginning of the study, animals were clinically examined to ascertain the absence of abnormal clinical signs. At 2, 5, 30, 60 and 120 min post intravenous injection via the tail vein of ca. 150 kBq in 100 μl of the test compound, urine and faeces were quantitatively collected. At the same time points, animals were anaesthetised with isoflurane, sacrificed by decapitation and the following organs and tissues were removed for the determination of radioactivity using a gamma-counter: spleen, liver, kidney, lung, bone, heart, brain, fat, thyroid, muscle, skin, blood, tail, stomach (without content), testicle, intestine (with content), pancreas, adrenals, skull, and the remaining body. For the analysis, the decay corrected percentage of the injected dose per tissue weight (% ID/g±standard deviation) was calculated.

T2 sequence (P10636 1-441 isoform P10636-8 P301S/G335D): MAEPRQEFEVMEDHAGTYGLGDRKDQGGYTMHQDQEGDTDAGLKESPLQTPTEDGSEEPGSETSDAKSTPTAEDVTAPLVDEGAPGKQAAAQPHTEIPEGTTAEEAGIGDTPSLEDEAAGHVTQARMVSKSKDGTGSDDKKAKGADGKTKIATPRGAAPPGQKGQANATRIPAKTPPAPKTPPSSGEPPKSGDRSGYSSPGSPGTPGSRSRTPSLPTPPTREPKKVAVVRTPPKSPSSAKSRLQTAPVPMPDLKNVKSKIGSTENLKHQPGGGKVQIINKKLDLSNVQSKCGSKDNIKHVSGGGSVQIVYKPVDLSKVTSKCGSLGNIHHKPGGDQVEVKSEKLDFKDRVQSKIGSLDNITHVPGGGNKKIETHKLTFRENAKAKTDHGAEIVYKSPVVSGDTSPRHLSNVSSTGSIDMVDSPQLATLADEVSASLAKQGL

Cc1ccc2nc(-c3ccc(/C=C/c4ccc(N(C)C)cc4)cc3)sc2c1 [SK2033-30, 2-{4-[2-(4-Dimethylaminophenyl)-vinyl]-phenyl}-6-methylbenzothiazole]
uptake and labelling of aggregated tau in induced cells ([1]; IPTG-induced cells): demonstrated
binding to aggregated tau within cells, fluorescence microscopy [1]: selective binding
staining pattern in paraffin-embedded line 66 mouse brain section ([2]; ligand added in 50% ethanol containing 10% DMSO): showed a staining pattern similar to that observed with primulin or antibody
uptake/staining in paraffin-embedded line 66 mouse brain section ([2]; ligand added in 50% ethanol, compared with primulin or antibody immunostaining): little evidence for its uptake into cells

Oc1ccc(/N=N/c2ccc(-c3nc4ccc(O)cc4s3)cc2)c(C(F)(F)F)c1 [LS-T213, 4-{(E)-[4-(6-Hydroxy-1,3-benzothiazol-2-yl)phenyl]diazenyl}-3-(trifluoromethyl)phenol]
binding to aggregated tau within cells, fluorescence microscopy [1]: selective binding

COc1ccc2nc(-c3ccc(NC(=O)c4ccc([18F])nc4)cc3)sc2c1 [SKT04-137, 6-[^18F]Fluoro-N-[4-(6-methoxy-benzothiazol-2-yl)-phenyl]-nicotinamide]
% ID/g ([3]; Adrenals, 2 min post i.v.): 10.84 % ID/g
% ID/g ([3]; Adrenals, 5 min post i.v.): 9.59 % ID/g
% ID/g ([3]; Adrenals, 30 min post i.v.): 5.62 % ID/g
% ID/g ([3]; Adrenals, 60 min post i.v.): 2.83 % ID/g
% ID/g ([3]; Adrenals, 120 min post i.v.): 1.04 % ID/g
% ID/g ([3]; Blood, 2 min post i.v.): 1.69 % ID/g
% ID/g ([3]; Blood, 5 min post i.v.): 1.12 % ID/g
% ID/g ([3]; Blood, 30 min post i.v.): 0.74 % ID/g
% ID/g ([3]; Blood, 60 min post i.v.): 0.39 % ID/g
% ID/g ([3]; Blood, 120 min post i.v.): 0.16 % ID/g
% ID/g ([3]; Bone, 2 min post i.v.): 1.54 % ID/g
% ID/g ([3]; Bone, 5 min post i.v.): 1.50 % ID/g
% ID/g ([3]; Bone, 30 min post i.v.): 1.20 % ID/g
% ID/g ([3]; Bone, 60 min post i.v.): 1.96 % ID/g
% ID/g ([3]; Bone, 120 min post i.v.): 1.65 % ID/g
% ID/g ([3]; Brain, 2 min post i.v.): 3.99 % ID/g
% ID/g ([3]; Brain, 5 min post i.v.): 3.54 % ID/g
% ID/g ([3]; Brain, 30 min post i.v.): 3.19 % ID/g
% ID/g ([3]; Brain, 60 min post i.v.): 1.43 % ID/g
% ID/g ([3]; Brain, 120 min post i.v.): 0.60 % ID/g
% ID/g ([3]; Fat, 2 min post i.v.): 1.25 % ID/g
% ID/g ([3]; Fat, 5 min post i.v.): 1.57 % ID/g
% ID/g ([3]; Fat, 30 min post i.v.): 7.21 % ID/g
% ID/g ([3]; Fat, 60 min post i.v.): 4.51 % ID/g
% ID/g ([3]; Fat, 120 min post i.v.): 1.76 % ID/g
% ID/g ([3]; Heart, 2 min post i.v.): 6.68 % ID/g
% ID/g ([3]; Heart, 5 min post i.v.): 3.72 % ID/g
% ID/g ([3]; Heart, 30 min post i.v.): 1.62 % ID/g
% ID/g ([3]; Heart, 60 min post i.v.): 0.81 % ID/g
% ID/g ([3]; Heart, 120 min post i.v.): 0.39 % ID/g
% ID/g ([3]; Intestine, 2 min post i.v.): 1.99 % ID/g
% ID/g ([3]; Intestine, 5 min post i.v.): 2.45 % ID/g
% ID/g ([3]; Intestine, 30 min post i.v.): 9.36 % ID/g
% ID/g ([3]; Intestine, 60 min post i.v.): 17.43 % ID/g
% ID/g ([3]; Intestine, 120 min post i.v.): 20.08 % ID/g
% ID/g ([3]; Kidney, 2 min post i.v.): 9.60 % ID/g
% ID/g ([3]; Kidney, 5 min post i.v.): 7.10 % ID/g
% ID/g ([3]; Kidney, 30 min post i.v.): 6.38 % ID/g
% ID/g ([3]; Kidney, 60 min post i.v.): 3.78 % ID/g
% ID/g ([3]; Kidney, 120 min post i.v.): 1.49 % ID/g
% ID/g ([3]; Liver, 2 min post i.v.): 11.52 % ID/g
% ID/g ([3]; Liver, 5 min post i.v.): 13.30 % ID/g
% ID/g ([3]; Liver, 30 min post i.v.): 7.03 % ID/g
% ID/g ([3]; Liver, 60 min post i.v.): 4.26 % ID/g
% ID/g ([3]; Liver, 120 min post i.v.): 2.41 % ID/g
% ID/g ([3]; Lung, 2 min post i.v.): 6.91 % ID/g
% ID/g ([3]; Lung, 5 min post i.v.): 4.55 % ID/g
% ID/g ([3]; Lung, 30 min post i.v.): 1.83 % ID/g
% ID/g ([3]; Lung, 60 min post i.v.): 0.97 % ID/g
% ID/g ([3]; Lung, 120 min post i.v.): 0.40 % ID/g
% ID/g ([3]; Muscle, 2 min post i.v.): 1.98 % ID/g
% ID/g ([3]; Muscle, 5 min post i.v.): 1.80 % ID/g
% ID/g ([3]; Muscle, 30 min post i.v.): 1.11 % ID/g
% ID/g ([3]; Muscle, 60 min post i.v.): 0.63 % ID/g
% ID/g ([3]; Muscle, 120 min post i.v.): 0.20 % ID/g
% ID/g ([3]; Pancreas, 2 min post i.v.): 4.34 % ID/g
% ID/g ([3]; Pancreas, 5 min post i.v.): 3.17 % ID/g
% ID/g ([3]; Pancreas, 30 min post i.v.): 1.74 % ID/g
% ID/g ([3]; Pancreas, 60 min post i.v.): 1.11 % ID/g
% ID/g ([3]; Pancreas, 120 min post i.v.): 0.33 % ID/g
% ID/g ([3]; Skin, 2 min post i.v.): 1.01 % ID/g
% ID/g ([3]; Skin, 5 min post i.v.): 1.28 % ID/g
% ID/g ([3]; Skin, 30 min post i.v.): 1.87 % ID/g
% ID/g ([3]; Skin, 60 min post i.v.): 1.11 % ID/g
% ID/g ([3]; Skin, 120 min post i.v.): 0.45 % ID/g
% ID/g ([3]; Skull, 2 min post i.v.): 1.93 % ID/g
% ID/g ([3]; Skull, 5 min post i.v.): 1.28 % ID/g
% ID/g ([3]; Skull, 30 min post i.v.): 0.95 % ID/g
% ID/g ([3]; Skull, 60 min post i.v.): 1.44 % ID/g
% ID/g ([3]; Skull, 120 min post i.v.): 1.04 % ID/g
% ID/g ([3]; Spleen, 2 min post i.v.): 2.95 % ID/g
% ID/g ([3]; Spleen, 5 min post i.v.): 2.44 % ID/g
% ID/g ([3]; Spleen, 30 min post i.v.): 1.19 % ID/g
% ID/g ([3]; Spleen, 60 min post i.v.): 0.60 % ID/g
% ID/g ([3]; Spleen, 120 min post i.v.): 0.30 % ID/g
% ID/g ([3]; Stomach, 2 min post i.v.): 3.67 % ID/g
% ID/g ([3]; Stomach, 5 min post i.v.): 2.28 % ID/g
% ID/g ([3]; Stomach, 30 min post i.v.): 2.48 % ID/g
% ID/g ([3]; Stomach, 60 min post i.v.): 2.17 % ID/g
% ID/g ([3]; Stomach, 120 min post i.v.): 0.98 % ID/g
% ID/g ([3]; Tail, 2 min post i.v.): 15.89 % ID/g
% ID/g ([3]; Tail, 5 min post i.v.): 7.40 % ID/g
% ID/g ([3]; Tail, 30 min post i.v.): 3.74 % ID/g
% ID/g ([3]; Tail, 60 min post i.v.): 7.70 % ID/g
% ID/g ([3]; Tail, 120 min post i.v.): 4.93 % ID/g
% ID/g ([3]; Testes, 2 min post i.v.): 0.97 % ID/g
% ID/g ([3]; Testes, 5 min post i.v.): 1.10 % ID/g
% ID/g ([3]; Testes, 30 min post i.v.): 1.68 % ID/g
% ID/g ([3]; Testes, 60 min post i.v.): 1.18 % ID/g
% ID/g ([3]; Testes, 120 min post i.v.): 0.61 % ID/g
% ID/g ([3]; Thyroid, 2 min post i.v.): 3.97 % ID/g
% ID/g ([3]; Thyroid, 5 min post i.v.): 2.59 % ID/g
% ID/g ([3]; Thyroid, 30 min post i.v.): 1.06 % ID/g
% ID/g ([3]; Thyroid, 60 min post i.v.): 0.59 % ID/g
% ID/g ([3]; Thyroid, 120 min post i.v.): 0.37 % ID/g
brain washout ([3]; i.v., 60 min vs 2 min): 64%
brain uptake ([3]; i.v., after 2 min): 3.99 % injected dose/g tissue
brain level ([3]; i.v., after 60 min): 1.43 % injected dose/g tissue
